Measurements: patent US20230270815A1, “Apoptosis inducing peptide (SSTP1)” (Rajiv Gandhi Centre For Biotechnology, priority 2020, published 2023)
Entries after “also recorded” stand apart in the source; their conditions may differ. Residues, ends and D or L forms follow the SMILES beside them.

Experiments:
HSC-4 cells [1] = experiment: MTT assay of SSTP1-induced growth inhibition with or without inhibitors; assay type: cell-based; conditions: 4 h, SSTP1 10 μM; LMT-28 60 μM, Anti-IL6Rα 10 μg/ml, SC144 40 μM
Source text: (§1) a. Inhibitors for IL6 (LMT-28), JAK (Ruxolitinib), gp130 (SC-144) and JNK (SP600125) as well as Anti-IL6Rα were used to check the dispensability of each of these molecules in inducing apoptosis by SSTP1. […] The SSTP1-mediated up-regulation of pJNK was not appreciably affected by either of these inhibitors, while pcJUN up-regulation was inhibited by only SP600125 (FIGS. 7a and b). […] LMT28 binds to the interface between IL6 and gp130 to block the activity of IL6. Since SSTP1 binds to a different site on the IL6/IL6Rα/gp130 complex, i.e., the interface of IL6 and IL6Rα, there is no competitive inhibition when we add LMT28. b.

[2] = test system: STAT, JNK and cJUN phosphorylation in HSC-4 cells; experiment: Western blot of HSC-4 cells treated with SSTP1 and inhibitors; assay type: cell-based; conditions: HSC-4, SSTP1 10 μM, SC144 40 μM, Anti-IL6Rα 10 μg/ml, 30 minutes
Source text: as §1

HSC-4 cells [3] = test system: HSC-4 cells
Experimental: Evaluation of the cytotoxicity of SSTP1 and SSTP2 was performed using MTT assay in an oral cancer cell line, HSC-4 at various concentrations of the respective peptides.

human RBCs = experiment: Hemolysis of human RBCs; conditions: 5 μM
Experimental: (§2) Further, the growth inhibitory property of SSTP1 on different cell lines with different levels of IL6Rα was investigated. Six cancer cell lines of different origin were evaluated for their IL6Rα expression in comparison to HSC-4 by western blot (FIGS. 8a and b). […] Since many of the bioactive peptides induce hemolysis, we evaluated the hemolysis induced by SSTP1 (FIG. 8d).

HSC-4 cells [4] = experiment: Annexin/PI staining with FACS analysis; assay type: cell-based; conditions: HSC-4, 10 μM, 22 h
Experimental: To check whether the cytotoxic effect is due to apoptosis, Annexin/PI staining was performed, with the population with Annexin alone (early apoptotic), Annexin/PI dual stained (late apoptotic) and PI alone (dead cells) were quantified by FACS.

[5] = test system: Caspase 3, 7, 8, 9 and PARP in HSC-4 cells; experiment: Western blot for caspase and PARP cleavage; assay type: cell-based; conditions: HSC-4, 10 μM
[6] = test system: JAK/STAT, JNK/AP1, MAPK and AKT phosphorylation in HSC-4 cells; experiment: Western blot of JAK/STAT, JNK/AP1, MAPK and PI3K pathway phosphorylation; assay type: cell-based; conditions: HSC-4, 10 μM
Source text: a. […] The phosphorylated forms of STAT1 (Y701) and STAT3 (Y705) were probed for western blot to see the JAK/STAT pathway activation. Another phosphorylation of STAT3 at S727, which is reported to be independent of JAK activation, was also probed. […] All these biochemical analyses point out that SSTP1 preferentially down-regulates JAK-mediated-phosphorylation of STATs and MAPK, simultaneously up-regulating phosphorylation of JNK1 and cJUN. b.

AP1 = experiment: Luciferase AP1 reporter assay; assay type: cell-based; conditions: in comparison to SSTP2
IL6Rα [7] = target: T1, IL6Rα (Homo sapiens, UniProt P08887); experiment: Pull-down assay using biotin-labelled peptides; assay type: binding
T1 sequence (P08887 20-468): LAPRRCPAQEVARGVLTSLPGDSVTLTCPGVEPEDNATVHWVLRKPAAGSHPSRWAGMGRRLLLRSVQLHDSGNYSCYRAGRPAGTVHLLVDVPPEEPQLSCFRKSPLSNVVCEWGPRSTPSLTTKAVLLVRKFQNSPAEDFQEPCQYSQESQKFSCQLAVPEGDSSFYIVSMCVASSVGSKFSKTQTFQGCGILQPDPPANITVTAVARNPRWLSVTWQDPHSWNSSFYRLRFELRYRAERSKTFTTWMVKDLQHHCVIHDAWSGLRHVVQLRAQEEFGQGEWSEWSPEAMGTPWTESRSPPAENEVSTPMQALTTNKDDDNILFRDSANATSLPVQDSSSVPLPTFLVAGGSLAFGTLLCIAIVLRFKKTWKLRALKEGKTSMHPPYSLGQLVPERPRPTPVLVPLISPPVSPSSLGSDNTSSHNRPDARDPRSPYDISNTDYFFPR
Source text: To check whether SSTP1 activates the IL6/IL6R pathway by binding to IL6Rα, we checked the co-localization of SSTP1 and IL6Rα on cell membrane. […] To visualize the IL6R-dependent SSTP1 endosomal up-take, we used an early endosome marker, Rab5C. We observed the co-existence of SSTP1 and IL6Rα within early endosomes, marked by Rab5C (FIGS. 4c and d). […] The physical interaction of SSTP1 and IL6Rα was also ascertained using FRET analysis (FIG. 4f).
FIG. 4 illustrates SSTP1 interacts with IL6Rα and mediates the uptake of SSTP1 specifically FIG. 4(a) discusses HSC-4 cells were treated with Biotin labelled SSTP1 or SSTP2 (10 μM) for 30 minutes and then fixed and probed without permeabilization using mouse IL6Rα. 4(b) illustrates the co-localization of SSTP1 or SSTP2 to IL6Rα was analyzed for 11 cells and the Pearson's correlation was plotted. 4(c) illustrates cells were treated as in panel (a) and fixed and permeabilized to probe for IL6Rα, SSTP1 and Rab5c. The arrow mark indicates the co-localization. The scales bars represent 4 μm. 4(d) illustrates the Mander's overlap in SSTP1 foci were quantified for 10 cells. The average values for each cell is plotted. 4(e) illustrates the pull down assay using SSTP1-biotin and probed for IL6Rα. 4(f) illustrates the FRET analysis to show the SSTP1 binding to IL6Rα.

[8] = test system: six cancer cell lines of different origin; experiment: MTT assay in six cancer cell lines with up-regulated IL6Rα; assay type: cell-based; conditions: 10 μM SSTP1, all six cell lines
Experimental: as §2

MDA-MB-231 cells = conditions: read-out: IC50 growth inhibition (MTT)
human leukocytes = experiment: Trypan blue exclusion of leukocytes; conditions: 4.5 μM, 48 h
IL6Rα [9] = target: T1, IL6Rα; experiment: Co-localization of peptide and IL6Rα on cell membrane (Pearson's coefficient); assay type: cell-based; parameters: fixed and probed without permeabilization using mouse IL6Rα; endogenous in cells; host or cells: HSC-4; conditions: HSC-4, 10 μM, 30 minutes
Source text: To check whether SSTP1 activates the IL6/IL6R pathway by binding to IL6Rα, we checked the co-localization of SSTP1 and IL6Rα on cell membrane. […] To visualize the IL6R-dependent SSTP1 endosomal up-take, we used an early endosome marker, Rab5C. We observed the co-existence of SSTP1 and IL6Rα within early endosomes, marked by Rab5C (FIGS. 4c and d). […] The physical interaction of SSTP1 and IL6Rα was also ascertained using FRET analysis (FIG. 4f). FIG. 4 illustrates SSTP1 interacts with IL6Rα and mediates the uptake of SSTP1 specifically FIG. 4(a) discusses HSC-4 cells were treated with Biotin labelled SSTP1 or SSTP2 (10 μM) for 30 minutes and then fixed and probed without permeabilization using mouse IL6Rα. 4(b) illustrates the co-localization of SSTP1 or SSTP2 to IL6Rα was analyzed for 11 cells and the Pearson's correlation was plotted. 4(c) illustrates cells were treated as in panel (a) and fixed and permeabilized to probe for IL6Rα, SSTP1 and Rab5c. The arrow mark indicates the co-localization. The scales bars represent 4 μm. 4(d) illustrates the Mander's overlap in SSTP1 foci were quantified for 10 cells. The average values for each cell is plotted. 4(e) illustrates the pull down assay using SSTP1-biotin and probed for IL6Rα. 4(f) illustrates the FRET analysis to show the SSTP1 binding to IL6Rα.

O=C(NNc1nc2cc(F)ccc2n2cccc12)c1cnccn1 [SC144]
effect on SSTP1-induced growth inhibition (HSC-4 cells [1]): significantly inhibited | phosphorylation of STATs, JNK and cJUN [2]: significantly reduced

CC[C@H](C)[C@H](NC(=O)[C@H](CC(C)C)NC(=O)[C@H](CC(C)C)NC(=O)[C@@H]1CCCN1C(=O)[C@H](CC(C)C)NC(=O)[C@@H](N)Cc1ccccc1)C(=O)N[C@@H](CO)C(=O)N[C@@H](C)C(=O)N[C@@H](CC(C)C)C(=O)N[C@H](C(=O)N[C@@H](CO)C(=O)N[C@@H](CC(C)C)C(=O)N[C@@H](Cc1ccccc1)C(=O)N1CCC[C@H]1C(=O)N[C@@H](CCCCN)C(=O)N[C@@H](CC(C)C)C(=O)NCC(=O)N[C@@H](CCCCN)C(N)=O)[C@@H](C)O [SSTP1, FLPLLISALTSLFPKLGK] (H-FLPLLISALTSLFPKLGK-NH2)
IC50 (HSC-4 cells [3]; read-out: IC50 growth inhibition (MTT), HSC-4 cells): 10.2 µM | hemolysis (human RBCs): 0.25% | increase in early apoptotic population (HSC-4 cells [4]): 3 fold | Caspase 8 cleavage [5]: unaffected | cleavage of Caspase 3, 7 and 9 [5]: active cleavage | time to PARP cleavage [5]: ≤ 16 h | STAT1 (Y701) phosphorylation [6]: did not affect STAT1 (Y701) phosphorylation significantly | STAT3 (Y705) phosphorylation [6]: drastically reduced | pJNK2 levels [6]: up-regulated | pSTAT3(S727) [6]: slight up-regulation | pc-JUN level [6]: increased level | phosphorylation of JNK1 [6]: markedly up-regulated | AP1 activity (luciferase reporter) (AP1): activated | physical interaction with IL6Rα (pull-down) (IL6Rα [7]): stronger than that of SSTP2 | growth inhibitory potential compared to HSC-4 [8]: drastic increase in the growth inhibitory potential | IC50 (MDA-MB-231 cells): 4.5 µM | viability of leukocytes (human leukocytes): did not affect the viability; also recorded: no adverse effect; also recorded: Illustrates SSTP1 do not induce cell death in human leukocytes | co-localization to IL6Rα on cell surface (IL6Rα [9]): several foci on the cell surface with co-localization

CC[C@H](C)[C@H](NC(=O)[C@H](CCCNC(=N)N)NC(=O)[C@H](CCCNC(=N)N)NC(=O)[C@@H]1CCCN1C(=O)[C@H](CC(C)C)NC(=O)[C@@H](N)Cc1ccccc1)C(=O)N[C@@H](CO)C(=O)N[C@@H](C)C(=O)N[C@@H](CCCNC(=N)N)C(=O)N[C@H](C(=O)N[C@@H](CO)C(=O)N[C@@H](CC(C)C)C(=O)N[C@@H](Cc1ccccc1)C(=O)N1CCC[C@H]1C(=O)N[C@@H](CCCCN)C(=O)N[C@@H](CCCNC(=N)N)C(=O)NCC(=O)N[C@@H](CCCCN)C(N)=O)[C@@H](C)O [SSTP2, FLPRRISARTSLFPKRGK-NH2, reference compound] (H-FLPRRISARTSLFPKRGK-NH2)
cytotoxicity (MTT), result in words (HSC-4 cells [3]): ineffective in inducing cytotoxicity
